# Measurements from ChEMBL document CHEMBL5442219.
# What was measured:
# Settings in all cases: Compound concentration 10 µM
# [1] = molecular target: 5-hydroxytryptamine receptor 1E (Homo sapiens) (UniProt P28566)
# Description: PDSP Primary Binding target: HTR1E - Compounds are tested at 10 uM concentration, plate are incubated at room temperature in the dark for 90 minutes. Reaction are stopped by vacuum filtration onto 0.3% polyethyleneimine soaked filter mats using Filtermate harvester. Scintilation cocktail is then melted onto microwave-dried filters on a hot plate and the radio activity is counted in Microbia counter.
# [2] = molecular target: D(3) dopamine receptor (Homo sapiens) (UniProt P35462)
# Description: PDSP Primary Binding target: DRD3 - Compounds are tested at 10 uM concentration, plate are incubated at room temperature in the dark for 90 minutes. Reaction are stopped by vacuum filtration onto 0.3% polyethyleneimine soaked filter mats using Filtermate harvester. Scintilation cocktail is then melted onto microwave-dried filters on a hot plate and the radio activity is counted in Microbia counter.
# [3] = molecular target: T1, Muscarinic acetylcholine receptor M1 (Homo sapiens) (UniProt P11229)
# T1 sequence (whole entry): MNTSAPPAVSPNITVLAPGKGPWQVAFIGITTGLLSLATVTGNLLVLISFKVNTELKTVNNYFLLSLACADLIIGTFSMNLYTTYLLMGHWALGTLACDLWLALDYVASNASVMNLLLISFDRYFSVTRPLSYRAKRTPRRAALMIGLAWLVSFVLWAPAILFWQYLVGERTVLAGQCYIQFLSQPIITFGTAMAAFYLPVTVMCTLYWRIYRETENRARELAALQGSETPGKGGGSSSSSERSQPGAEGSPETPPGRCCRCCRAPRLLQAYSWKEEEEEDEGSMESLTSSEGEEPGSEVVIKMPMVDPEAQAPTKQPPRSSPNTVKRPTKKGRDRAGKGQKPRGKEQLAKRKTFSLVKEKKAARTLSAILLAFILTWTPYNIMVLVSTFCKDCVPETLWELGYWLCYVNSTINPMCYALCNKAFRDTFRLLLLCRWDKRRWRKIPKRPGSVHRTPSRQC
# Description: PDSP Primary Binding target: CHRM1 - Compounds are tested at 10 uM concentration, plate are incubated at room temperature in the dark for 90 minutes. Reaction are stopped by vacuum filtration onto 0.3% polyethyleneimine soaked filter mats using Filtermate harvester. Scintilation cocktail is then melted onto microwave-dried filters on a hot plate and the radio activity is counted in Microbia counter.
# [4] = molecular target: D(1A) dopamine receptor (Homo sapiens) (UniProt P21728)
# Description: PDSP Primary Binding target: DRD1 - Compounds are tested at 10 uM concentration, plate are incubated at room temperature in the dark for 90 minutes. Reaction are stopped by vacuum filtration onto 0.3% polyethyleneimine soaked filter mats using Filtermate harvester. Scintilation cocktail is then melted onto microwave-dried filters on a hot plate and the radio activity is counted in Microbia counter.
# [5] = molecular target: Histamine H3 receptor (Homo sapiens) (UniProt Q9Y5N1)
# Description: PDSP Primary Binding target: HRH3 - Compounds are tested at 10 uM concentration, plate are incubated at room temperature in the dark for 90 minutes. Reaction are stopped by vacuum filtration onto 0.3% polyethyleneimine soaked filter mats using Filtermate harvester. Scintilation cocktail is then melted onto microwave-dried filters on a hot plate and the radio activity is counted in Microbia counter.
# [6] = molecular target: T2, Alpha-1A adrenergic receptor (Homo sapiens) (UniProt P35348)
# T2 sequence (whole entry): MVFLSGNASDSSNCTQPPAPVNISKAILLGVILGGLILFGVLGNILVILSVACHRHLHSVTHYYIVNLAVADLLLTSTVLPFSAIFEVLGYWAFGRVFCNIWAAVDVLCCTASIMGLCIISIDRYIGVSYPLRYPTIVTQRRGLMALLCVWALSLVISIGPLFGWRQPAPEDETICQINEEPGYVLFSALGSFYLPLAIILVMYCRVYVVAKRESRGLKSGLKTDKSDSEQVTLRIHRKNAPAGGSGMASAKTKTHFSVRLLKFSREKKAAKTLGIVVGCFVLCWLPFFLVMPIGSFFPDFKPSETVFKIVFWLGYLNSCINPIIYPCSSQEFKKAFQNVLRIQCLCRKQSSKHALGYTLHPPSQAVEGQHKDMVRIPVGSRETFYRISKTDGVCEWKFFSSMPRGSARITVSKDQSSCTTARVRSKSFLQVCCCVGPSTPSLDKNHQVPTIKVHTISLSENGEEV
# Description: PDSP Primary Binding target: ADRA1A - Compounds are tested at 10 uM concentration, plate are incubated at room temperature in the dark for 90 minutes. Reaction are stopped by vacuum filtration onto 0.3% polyethyleneimine soaked filter mats using Filtermate harvester. Scintilation cocktail is then melted onto microwave-dried filters on a hot plate and the radio activity is counted in Microbia counter.
# [7] = molecular target: Histamine H2 receptor (Homo sapiens) (UniProt P25021)
# Description: PDSP Primary Binding target: HRH2 - Compounds are tested at 10 uM concentration, plate are incubated at room temperature in the dark for 90 minutes. Reaction are stopped by vacuum filtration onto 0.3% polyethyleneimine soaked filter mats using Filtermate harvester. Scintilation cocktail is then melted onto microwave-dried filters on a hot plate and the radio activity is counted in Microbia counter.
# [8] = molecular target: D(2) dopamine receptor (Homo sapiens) (UniProt P14416)
# Description: PDSP Primary Binding target: DRD2 - Compounds are tested at 10 uM concentration, plate are incubated at room temperature in the dark for 90 minutes. Reaction are stopped by vacuum filtration onto 0.3% polyethyleneimine soaked filter mats using Filtermate harvester. Scintilation cocktail is then melted onto microwave-dried filters on a hot plate and the radio activity is counted in Microbia counter.
# [9] = molecular target: T3, Alpha-1D adrenergic receptor (Homo sapiens) (UniProt P25100)
# T3 sequence (whole entry): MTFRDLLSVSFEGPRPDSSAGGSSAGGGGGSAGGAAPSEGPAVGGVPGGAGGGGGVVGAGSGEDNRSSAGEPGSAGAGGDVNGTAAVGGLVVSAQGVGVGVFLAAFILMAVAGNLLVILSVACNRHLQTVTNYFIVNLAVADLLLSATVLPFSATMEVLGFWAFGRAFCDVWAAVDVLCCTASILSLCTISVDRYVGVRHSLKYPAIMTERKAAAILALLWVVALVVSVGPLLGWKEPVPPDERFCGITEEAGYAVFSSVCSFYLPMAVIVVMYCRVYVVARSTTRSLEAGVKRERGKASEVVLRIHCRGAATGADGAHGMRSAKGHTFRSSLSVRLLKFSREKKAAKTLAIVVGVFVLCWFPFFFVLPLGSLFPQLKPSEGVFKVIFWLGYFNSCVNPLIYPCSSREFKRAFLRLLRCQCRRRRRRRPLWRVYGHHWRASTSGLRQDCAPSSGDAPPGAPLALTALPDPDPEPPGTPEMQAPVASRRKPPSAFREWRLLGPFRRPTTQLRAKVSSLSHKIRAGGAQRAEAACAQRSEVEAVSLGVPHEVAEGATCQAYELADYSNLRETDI
# Description: PDSP Primary Binding target: ADRA1D - Compounds are tested at 10 uM concentration, plate are incubated at room temperature in the dark for 90 minutes. Reaction are stopped by vacuum filtration onto 0.3% polyethyleneimine soaked filter mats using Filtermate harvester. Scintilation cocktail is then melted onto microwave-dried filters on a hot plate and the radio activity is counted in Microbia counter.
# [10] = molecular target: Muscarinic acetylcholine receptor M3 (Homo sapiens) (UniProt P20309)
# Description: PDSP Primary Binding target: CHRM3 - Compounds are tested at 10 uM concentration, plate are incubated at room temperature in the dark for 90 minutes. Reaction are stopped by vacuum filtration onto 0.3% polyethyleneimine soaked filter mats using Filtermate harvester. Scintilation cocktail is then melted onto microwave-dried filters on a hot plate and the radio activity is counted in Microbia counter.
# [11] = molecular target: T4, Muscarinic acetylcholine receptor M2 (Homo sapiens) (UniProt P08172)
# T4 sequence (whole entry): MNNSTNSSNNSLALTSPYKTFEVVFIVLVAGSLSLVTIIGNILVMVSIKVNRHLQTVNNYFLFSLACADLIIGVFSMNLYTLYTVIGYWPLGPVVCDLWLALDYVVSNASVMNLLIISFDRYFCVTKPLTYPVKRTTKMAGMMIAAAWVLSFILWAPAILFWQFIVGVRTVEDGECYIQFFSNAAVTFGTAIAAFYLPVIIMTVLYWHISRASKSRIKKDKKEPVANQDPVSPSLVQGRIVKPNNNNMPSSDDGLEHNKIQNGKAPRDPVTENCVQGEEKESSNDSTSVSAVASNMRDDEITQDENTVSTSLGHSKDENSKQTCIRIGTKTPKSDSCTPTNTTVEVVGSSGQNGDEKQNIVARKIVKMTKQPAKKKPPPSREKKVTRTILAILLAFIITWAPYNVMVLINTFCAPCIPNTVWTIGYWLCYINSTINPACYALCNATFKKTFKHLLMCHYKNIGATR
# Description: PDSP Primary Binding target: CHRM2 - Compounds are tested at 10 uM concentration, plate are incubated at room temperature in the dark for 90 minutes. Reaction are stopped by vacuum filtration onto 0.3% polyethyleneimine soaked filter mats using Filtermate harvester. Scintilation cocktail is then melted onto microwave-dried filters on a hot plate and the radio activity is counted in Microbia counter.
# [12] = molecular target: Sigma intracellular receptor 2 (Homo sapiens) (UniProt Q5BJF2)
# Description: PDSP Primary Binding target: TMEM97 - Compounds are tested at 10 uM concentration, plate are incubated at room temperature in the dark for 90 minutes. Reaction are stopped by vacuum filtration onto 0.3% polyethyleneimine soaked filter mats using Filtermate harvester. Scintilation cocktail is then melted onto microwave-dried filters on a hot plate and the radio activity is counted in Microbia counter.
# [13] = molecular target: T5, 5-hydroxytryptamine receptor 2C (Homo sapiens) (UniProt P28335)
# T5 sequence (whole entry): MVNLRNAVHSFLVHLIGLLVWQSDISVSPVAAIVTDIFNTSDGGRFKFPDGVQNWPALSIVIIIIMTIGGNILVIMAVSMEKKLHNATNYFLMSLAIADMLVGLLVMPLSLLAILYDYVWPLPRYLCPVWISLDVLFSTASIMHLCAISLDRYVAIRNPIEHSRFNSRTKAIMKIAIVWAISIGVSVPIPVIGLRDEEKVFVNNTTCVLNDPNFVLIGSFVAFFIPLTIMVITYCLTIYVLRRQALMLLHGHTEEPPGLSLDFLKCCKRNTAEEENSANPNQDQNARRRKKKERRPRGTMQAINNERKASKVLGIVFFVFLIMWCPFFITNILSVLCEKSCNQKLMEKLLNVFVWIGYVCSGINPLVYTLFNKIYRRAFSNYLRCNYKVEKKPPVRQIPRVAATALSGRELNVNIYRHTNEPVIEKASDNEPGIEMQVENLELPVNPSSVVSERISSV
# Description: PDSP Primary Binding target: HTR2C - Compounds are tested at 10 uM concentration, plate are incubated at room temperature in the dark for 90 minutes. Reaction are stopped by vacuum filtration onto 0.3% polyethyleneimine soaked filter mats using Filtermate harvester. Scintilation cocktail is then melted onto microwave-dried filters on a hot plate and the radio activity is counted in Microbia counter.
# Chain of Histamine H2 receptor (Homo sapiens) (P25021 whole entry): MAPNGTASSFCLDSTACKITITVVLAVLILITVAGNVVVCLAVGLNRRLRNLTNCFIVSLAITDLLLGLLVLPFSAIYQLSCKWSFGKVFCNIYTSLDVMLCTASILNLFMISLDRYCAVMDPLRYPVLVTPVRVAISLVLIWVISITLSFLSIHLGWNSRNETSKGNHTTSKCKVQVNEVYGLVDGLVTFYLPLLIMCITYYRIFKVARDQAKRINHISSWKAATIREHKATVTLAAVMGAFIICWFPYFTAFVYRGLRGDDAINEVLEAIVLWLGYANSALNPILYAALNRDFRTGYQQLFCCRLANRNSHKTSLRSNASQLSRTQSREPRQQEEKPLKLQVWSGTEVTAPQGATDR
# Chain of D(3) dopamine receptor (Homo sapiens) (P35462 whole entry): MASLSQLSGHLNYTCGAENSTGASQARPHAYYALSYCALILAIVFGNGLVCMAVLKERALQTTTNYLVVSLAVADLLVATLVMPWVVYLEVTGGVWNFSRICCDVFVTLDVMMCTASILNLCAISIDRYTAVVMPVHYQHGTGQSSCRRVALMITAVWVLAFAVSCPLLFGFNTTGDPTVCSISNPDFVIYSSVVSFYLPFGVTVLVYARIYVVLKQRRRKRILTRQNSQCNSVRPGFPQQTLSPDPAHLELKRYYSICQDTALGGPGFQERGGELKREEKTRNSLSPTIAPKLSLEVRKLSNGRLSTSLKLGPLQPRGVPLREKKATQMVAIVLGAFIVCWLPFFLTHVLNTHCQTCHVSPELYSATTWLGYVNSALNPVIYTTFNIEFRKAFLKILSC
# Chain of D(2) dopamine receptor (Homo sapiens) (P14416 whole entry): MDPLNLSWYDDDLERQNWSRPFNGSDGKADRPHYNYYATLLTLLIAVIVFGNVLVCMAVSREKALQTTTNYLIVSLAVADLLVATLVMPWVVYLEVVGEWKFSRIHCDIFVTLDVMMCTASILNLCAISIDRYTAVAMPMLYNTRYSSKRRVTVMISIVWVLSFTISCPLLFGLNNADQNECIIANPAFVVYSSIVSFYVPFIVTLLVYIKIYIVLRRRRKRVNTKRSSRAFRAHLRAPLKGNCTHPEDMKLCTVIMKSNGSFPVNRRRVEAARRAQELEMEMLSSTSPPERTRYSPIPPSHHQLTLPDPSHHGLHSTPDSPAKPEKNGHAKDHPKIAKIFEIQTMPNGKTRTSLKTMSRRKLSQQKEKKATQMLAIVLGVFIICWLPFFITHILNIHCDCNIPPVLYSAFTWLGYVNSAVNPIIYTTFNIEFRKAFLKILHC
# Chain of Histamine H3 receptor (Homo sapiens) (Q9Y5N1 whole entry): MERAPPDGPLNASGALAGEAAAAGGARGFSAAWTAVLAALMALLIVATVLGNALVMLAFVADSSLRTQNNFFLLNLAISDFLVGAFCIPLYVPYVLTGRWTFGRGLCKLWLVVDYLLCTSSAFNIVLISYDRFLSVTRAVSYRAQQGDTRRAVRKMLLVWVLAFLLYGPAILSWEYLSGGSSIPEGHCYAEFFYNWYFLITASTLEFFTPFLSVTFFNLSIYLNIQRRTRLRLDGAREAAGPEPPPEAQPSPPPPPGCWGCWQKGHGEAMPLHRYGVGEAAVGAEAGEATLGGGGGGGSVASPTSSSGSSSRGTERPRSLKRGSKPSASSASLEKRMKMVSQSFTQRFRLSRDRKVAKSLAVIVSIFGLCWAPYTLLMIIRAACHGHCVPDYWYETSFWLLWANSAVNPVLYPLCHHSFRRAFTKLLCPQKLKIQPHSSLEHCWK
# Chain of Muscarinic acetylcholine receptor M3 (Homo sapiens) (P20309 whole entry, looked up): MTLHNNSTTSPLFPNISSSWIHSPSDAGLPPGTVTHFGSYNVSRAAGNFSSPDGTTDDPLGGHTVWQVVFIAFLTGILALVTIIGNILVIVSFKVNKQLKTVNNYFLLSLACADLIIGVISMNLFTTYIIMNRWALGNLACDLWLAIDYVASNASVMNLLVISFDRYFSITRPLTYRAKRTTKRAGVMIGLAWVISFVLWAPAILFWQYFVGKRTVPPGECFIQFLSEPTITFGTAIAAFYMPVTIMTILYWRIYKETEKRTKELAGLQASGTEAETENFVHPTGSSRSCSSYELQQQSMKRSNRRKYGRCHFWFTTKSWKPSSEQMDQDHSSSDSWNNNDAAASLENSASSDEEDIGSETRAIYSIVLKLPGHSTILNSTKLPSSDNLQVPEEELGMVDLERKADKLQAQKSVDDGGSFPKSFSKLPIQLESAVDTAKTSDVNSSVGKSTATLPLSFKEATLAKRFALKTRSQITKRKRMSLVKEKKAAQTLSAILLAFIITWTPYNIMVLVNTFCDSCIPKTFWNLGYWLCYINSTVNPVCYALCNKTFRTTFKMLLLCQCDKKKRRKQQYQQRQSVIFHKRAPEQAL
# Chain of 5-hydroxytryptamine receptor 1E (Homo sapiens) (P28566 whole entry): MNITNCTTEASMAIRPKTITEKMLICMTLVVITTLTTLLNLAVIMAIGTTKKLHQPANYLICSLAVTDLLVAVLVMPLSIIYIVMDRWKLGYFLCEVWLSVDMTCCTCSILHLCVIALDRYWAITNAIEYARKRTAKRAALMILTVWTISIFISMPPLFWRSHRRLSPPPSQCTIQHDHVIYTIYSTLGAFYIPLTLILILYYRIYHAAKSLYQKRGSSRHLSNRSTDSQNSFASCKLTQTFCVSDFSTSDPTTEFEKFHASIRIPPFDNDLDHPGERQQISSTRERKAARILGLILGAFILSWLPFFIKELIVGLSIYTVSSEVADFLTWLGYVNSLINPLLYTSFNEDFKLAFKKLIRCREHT
# Chain of D(1A) dopamine receptor (Homo sapiens) (P21728 whole entry): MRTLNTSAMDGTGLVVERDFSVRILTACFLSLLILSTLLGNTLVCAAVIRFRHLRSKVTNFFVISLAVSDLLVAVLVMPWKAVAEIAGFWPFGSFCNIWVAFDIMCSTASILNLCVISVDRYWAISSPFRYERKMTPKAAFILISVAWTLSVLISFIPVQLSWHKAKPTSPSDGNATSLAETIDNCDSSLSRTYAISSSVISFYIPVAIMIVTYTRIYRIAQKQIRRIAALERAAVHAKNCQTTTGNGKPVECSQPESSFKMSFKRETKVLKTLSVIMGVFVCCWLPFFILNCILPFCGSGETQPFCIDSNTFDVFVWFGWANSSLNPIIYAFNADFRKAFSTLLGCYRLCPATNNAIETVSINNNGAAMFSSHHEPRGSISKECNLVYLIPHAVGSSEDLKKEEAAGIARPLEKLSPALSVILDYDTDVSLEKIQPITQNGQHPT
# Chain of Sigma intracellular receptor 2 (Homo sapiens) (Q5BJF2 whole entry): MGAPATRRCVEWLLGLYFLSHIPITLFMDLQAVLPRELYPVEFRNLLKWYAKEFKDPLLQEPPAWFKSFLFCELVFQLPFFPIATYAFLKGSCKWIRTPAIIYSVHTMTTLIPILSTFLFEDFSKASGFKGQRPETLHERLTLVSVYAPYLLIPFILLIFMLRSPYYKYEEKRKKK
Structure (SMILES),inhibition [1] [%],inhibition [2] [%],inhibition [3] [%],inhibition [4] [%],inhibition [5] [%],inhibition [6] [%],inhibition [7] [%],inhibition [8] [%],inhibition [9] [%],inhibition [10] [%],inhibition [11] [%],inhibition [12] [%],inhibition [13] [%]
COc1ccc(C2(O)OC(=O)C(c3ccc4c(c3)OCO4)=C2Cc2cc(OC)c(OC)c(OC)c2)cc1 (configuration not stated),-4.29,-2.35,-8.77,-7.61,-8.58,3.1,24.4,-2.26,11,6.22,–,–,–
O=C(Cc1ccccc1)Nc1nc2ccc(Cl)cc2c2nc(-c3ccco3)nn12,7.51,30.2,5.61,–,–,10.4,13.8,1.93,-5.53,–,-4.43,-6.83,-5.69
O=c1ccn([C@@H]2O[C@H](COP(=O)(O)OP(=O)(O)O)[C@@H](O)[C@H]2O)c(=O)[nH]1,9.09,7.98,–,–,7.28,-6.92,-7.58,14.8,–,2.51,15.9,2.62,3.57
N#Cc1cccc(C(=O)Nc2cc(-c3ccccc3)nn2-c2ccccc2)c1,3.88,30.4,3.6,–,7.12,4.85,33,-0.08,–,–,20.9,-8.91,7.87
COc1ccc(S(=O)(=O)N2c3ccc(Cl)cc3[C@](O)(c3ccccc3Cl)[C@@H]2C(=O)N2CCC[C@H]2C(N)=O)cc1OC,–,40.4,–,–,7.89,-4.04,15.4,11.8,10.8,–,29.5,–,21.8
c1ccc(N2CCN(Cc3nc4ccccc4[nH]3)CC2)nc1,6.29,33.1,22.3,–,0.89,6.23,10.1,22.3,–,-4.76,-8.11,1.4,-9.96
N#Cc1c(N)nc(SCC(N)=O)c(C#N)c1-c1ccc(OCC2CC2)cc1,–,-6.34,1.45,–,-3.51,16.2,41.5,–,0.73,–,-6.03,–,–
CC(C)NCC(O)c1ccc(N)c(C#N)c1 (configuration not stated),32.7,-2.07,-2.53,-2.82,3.66,-0.15,5.77,1.95,–,-7.31,–,29.6,-7.04
O=C(O)CC/C=C\C[C@@H]1CO[C@H](c2ccccc2Cl)O[C@@H]1c1ccccc1O,-6.67,40,–,-0.4,6.14,-9.2,31.1,4.25,–,6.61,-3.76,–,-5.63
CC(C)(N)C(=O)N[C@H](COCc1ccccc1)C(=O)N1CCC2(CC1)CN(S(C)(=O)=O)c1ccccc12,14.1,25.7,–,–,-0.42,3.39,5.6,22.7,9.82,–,1.1,21.1,-2.12
O=C(Nc1ccc(Cl)cc1)Nc1cccc(-c2cccc(N3CCCC3)n2)c1,2.89,48.5,9.22,6.95,–,1.27,20,8.25,0.2,–,12.7,6.97,–
CC[C@@H]1CN2C(=O)N(C)c3nc(-c4ccccc4)[nH]c3C2=N1,23.8,27.9,1.36,–,-5.22,4.28,0.52,–,–,-6.97,-8.11,4.68,14.2
COc1ccc(/C=C/CCCCOc2ccc(C(=O)c3cccc(C(=O)O)c3)cc2CCC(=O)O)cc1,8.42,56.1,–,-0.17,10.8,11.7,21.3,28.2,1.82,-5.39,7.46,2.85,3.04
Cc1cc(NC(=O)Nc2ccc(N(C)C)cc2)c2cc(F)cc(F)c2n1,-4.12,34.5,-7.92,29.1,28.6,3.42,16.8,52.2,6.71,–,52.8,1.52,20.1
CCCSc1nc(N[C@@H]2C[C@H]2c2ccc(F)c(F)c2)c2nnn([C@@H]3C[C@H](OCCO)[C@@H](O)[C@H]3O)c2n1,3.9,29.6,18.3,24,–,11.7,3.94,29,11.3,–,-1.83,63.6,-3.61
